Results published in ChEMBL document CHEMBL1201862, “PubChem BioAssay data set” (2004).
The source made the active and inactive calls.

Experiments:
Cytochrome P450 2C19 = Cytochrome P450 2C19 (Homo sapiens, UniProt P33261); assay: Cytochrome panel assay with activity outcomes. Panel member name: p450-cyp2c19 Compounds with AC50 equal or less than 10 uM are considered active; format: functional
Cytochrome P450 3A4 [1] = molecular target: T1, Cytochrome P450 3A4 (Homo sapiens, UniProt P08684);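 further: CYP3A4 tested as one member of a cytochrome P450 panel screen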
T1 sequence (P08684 whole entry): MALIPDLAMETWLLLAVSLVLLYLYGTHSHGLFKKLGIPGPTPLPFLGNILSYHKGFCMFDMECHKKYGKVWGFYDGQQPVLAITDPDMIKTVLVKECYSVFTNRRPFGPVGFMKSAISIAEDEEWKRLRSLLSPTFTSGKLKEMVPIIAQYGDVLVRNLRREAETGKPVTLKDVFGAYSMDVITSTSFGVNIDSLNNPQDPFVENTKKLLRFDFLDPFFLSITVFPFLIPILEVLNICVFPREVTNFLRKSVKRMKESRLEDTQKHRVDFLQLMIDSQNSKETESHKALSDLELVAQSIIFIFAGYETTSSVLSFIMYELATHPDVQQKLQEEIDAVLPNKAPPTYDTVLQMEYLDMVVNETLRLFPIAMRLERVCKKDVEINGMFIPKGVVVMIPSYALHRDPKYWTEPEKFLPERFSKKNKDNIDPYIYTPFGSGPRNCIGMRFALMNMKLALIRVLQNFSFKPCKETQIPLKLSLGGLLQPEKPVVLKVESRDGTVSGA

[2] = molecular target: Lysine-specific demethylase 4A (Homo sapiens, UniProt O75164); assay: inhibition of JMJD2A H3K9me3 demethylation – biochemical, DELFIA europium, cherry-picked samples, selectivity assay for GASC-1 inhibitor project, dose response (AID 488840)
Lysine-specific demethylase 4A, sequence (O75164 whole entry): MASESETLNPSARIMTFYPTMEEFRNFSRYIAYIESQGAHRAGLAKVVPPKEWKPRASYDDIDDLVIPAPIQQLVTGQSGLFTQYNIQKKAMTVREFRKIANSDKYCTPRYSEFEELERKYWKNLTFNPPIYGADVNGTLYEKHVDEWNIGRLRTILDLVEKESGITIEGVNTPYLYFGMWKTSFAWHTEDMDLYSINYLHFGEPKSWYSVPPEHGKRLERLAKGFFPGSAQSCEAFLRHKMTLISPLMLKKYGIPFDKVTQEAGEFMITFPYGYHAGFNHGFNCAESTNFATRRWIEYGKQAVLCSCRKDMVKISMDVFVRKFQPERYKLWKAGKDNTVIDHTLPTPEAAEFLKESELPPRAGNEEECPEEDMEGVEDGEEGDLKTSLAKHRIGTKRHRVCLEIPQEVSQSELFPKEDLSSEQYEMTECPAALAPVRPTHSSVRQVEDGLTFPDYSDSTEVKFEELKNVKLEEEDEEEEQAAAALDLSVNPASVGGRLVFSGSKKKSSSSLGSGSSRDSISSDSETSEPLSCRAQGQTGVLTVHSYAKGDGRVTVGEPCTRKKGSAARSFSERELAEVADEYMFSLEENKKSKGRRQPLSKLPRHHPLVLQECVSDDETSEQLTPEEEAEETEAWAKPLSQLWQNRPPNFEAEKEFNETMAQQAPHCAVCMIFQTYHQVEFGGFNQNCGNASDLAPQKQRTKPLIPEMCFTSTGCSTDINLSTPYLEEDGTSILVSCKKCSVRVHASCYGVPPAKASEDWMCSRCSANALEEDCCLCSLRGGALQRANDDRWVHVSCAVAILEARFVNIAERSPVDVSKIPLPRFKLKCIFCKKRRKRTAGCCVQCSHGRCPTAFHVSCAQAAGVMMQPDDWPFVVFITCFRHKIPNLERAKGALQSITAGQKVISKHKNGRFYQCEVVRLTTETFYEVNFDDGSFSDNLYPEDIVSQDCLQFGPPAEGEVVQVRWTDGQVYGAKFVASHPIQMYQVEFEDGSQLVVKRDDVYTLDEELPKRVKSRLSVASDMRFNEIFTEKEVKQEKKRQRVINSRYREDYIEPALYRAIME

HEK293 [3] = assay: cells; conditions: Homo sapiens
HEK293 [4] = assay: cells; conditions: Homo sapiens; remark: listed apart in the source
[5] = tested on: Streptococcus sp. 'group A'; assay: Streptococcus pyogenes SK(-)GAS viability under kanamycin – luminescence, BacTiterGlo, confirmation, counter-screen for streptokinase expression inhibitor project, dose response (AID 1900); format: functional, organism-based
Escherichia coli [6] = assay: microbe, parasite or virus in culture
Streptococcus = assay: GAS UMAA2166 growth inhibition – luminescence, BacTiterGlo, counter-screen for streptokinase expression inhibitor project, dose response (AID 1915); format: functional, organism-based;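 further: potency for reduction of bacterial viability or growth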
Cytochrome P450 3A4 [7] = molecular target: T1, Cytochrome P450 3A4; remark: listed apart in the source
Escherichia coli [8] = assay: microbe, parasite or virus in culture; remark: listed apart in the source
Protein skinhead-1 = molecular target: T2, Protein skinhead-1 (Caenorhabditis elegans, UniProt P34707); format: functional
T2 sequence (P34707 whole entry): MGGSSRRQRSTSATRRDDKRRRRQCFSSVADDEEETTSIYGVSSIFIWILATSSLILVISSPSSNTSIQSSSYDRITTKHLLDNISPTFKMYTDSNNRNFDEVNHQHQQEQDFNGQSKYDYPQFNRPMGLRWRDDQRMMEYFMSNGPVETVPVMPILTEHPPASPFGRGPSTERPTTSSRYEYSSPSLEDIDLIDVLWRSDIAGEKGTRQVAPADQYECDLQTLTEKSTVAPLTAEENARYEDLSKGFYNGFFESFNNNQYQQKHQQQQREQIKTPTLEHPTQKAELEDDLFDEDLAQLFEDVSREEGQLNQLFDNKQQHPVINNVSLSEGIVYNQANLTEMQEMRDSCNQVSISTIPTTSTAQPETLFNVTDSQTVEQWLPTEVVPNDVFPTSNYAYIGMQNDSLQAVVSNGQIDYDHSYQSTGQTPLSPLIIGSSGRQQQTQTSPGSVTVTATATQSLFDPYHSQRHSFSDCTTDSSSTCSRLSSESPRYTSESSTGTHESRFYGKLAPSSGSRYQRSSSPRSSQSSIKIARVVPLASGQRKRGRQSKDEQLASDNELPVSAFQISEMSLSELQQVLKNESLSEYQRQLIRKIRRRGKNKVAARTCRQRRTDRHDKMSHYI

[9] = molecular target: Dual specificity tyrosine-phosphorylation-regulated kinase 1A (Rattus norvegicus, UniProt Q63470); format: biochemical, Homo sapiens
H4 = assay: Luminescence Cell-Based Dose Response HTS to Identify Activators of 5'UTR Stem-Loop Driven Prion Protein mRNA Translation in H4 Neuroglioblastoma Cells. [Related pubchem assays: 1829 (Project Summary), 1814 (Primary HTS)]; format: functional; conditions: Homo sapiens
HeLa = assay: ATP-based viability loss in HeLa cells – cell-based, CellTiter-Glo luminescence, cherry-pick samples, cytotoxicity control for MITF activator project, dose response (AID 540259); format: functional; conditions: Homo sapiens
[10] = molecular target: Intestinal-type alkaline phosphatase (Mus musculus, UniProt P24822); assay: PubChem AID 488785; format: functional
Intestinal-type alkaline phosphatase (Mus musculus, UniProt P24822), sequence (P24822 whole entry): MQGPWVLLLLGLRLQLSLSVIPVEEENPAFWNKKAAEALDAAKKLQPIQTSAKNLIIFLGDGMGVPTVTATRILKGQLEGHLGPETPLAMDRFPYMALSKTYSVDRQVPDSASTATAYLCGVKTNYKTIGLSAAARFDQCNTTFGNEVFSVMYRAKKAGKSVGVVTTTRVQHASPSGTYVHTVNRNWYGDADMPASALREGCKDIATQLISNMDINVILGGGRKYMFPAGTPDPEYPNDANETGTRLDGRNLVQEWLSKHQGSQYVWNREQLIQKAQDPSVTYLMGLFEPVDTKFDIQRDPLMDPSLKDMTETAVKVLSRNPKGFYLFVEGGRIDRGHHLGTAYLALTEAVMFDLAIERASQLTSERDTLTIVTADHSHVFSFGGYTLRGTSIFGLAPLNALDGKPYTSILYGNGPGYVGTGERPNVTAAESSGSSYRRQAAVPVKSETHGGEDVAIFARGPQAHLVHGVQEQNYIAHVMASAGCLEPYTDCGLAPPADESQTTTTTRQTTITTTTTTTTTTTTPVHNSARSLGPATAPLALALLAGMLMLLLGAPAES

[11] = NIH3T3 cell viability loss – ATP luminescence, mouse fibroblasts, counter-screen, dose response (AID 2010); format: functional, cell-based;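 further: cells exposed to compound for about 90 hours before reading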
[12] = Trypanosoma cruzi growth suppression in host cells – NIH3T3 host cells, beta-gal luminescence, confirmation (AID 2044); format: functional, cell-based;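 further: intracellular parasites grown in NIH/3T3 mouse fibroblasts as host cells; luminescent beta-galactosidase reporter signal from transgenic T. cruzi replicating inside host cells; inhibitors lower the luminescence signal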
[13] = molecular target: T3, Alkaline phosphatase, tissue-nonspecific isozyme (Homo sapiens, UniProt P05186); assay: TNAP enzyme inhibition by screening hits, dose response, selectivity assay for mouse IAP inhibitor project, biochemical, human TNAP, uHTS hits (AID 488906); format: functional
T3 sequence (P05186 whole entry): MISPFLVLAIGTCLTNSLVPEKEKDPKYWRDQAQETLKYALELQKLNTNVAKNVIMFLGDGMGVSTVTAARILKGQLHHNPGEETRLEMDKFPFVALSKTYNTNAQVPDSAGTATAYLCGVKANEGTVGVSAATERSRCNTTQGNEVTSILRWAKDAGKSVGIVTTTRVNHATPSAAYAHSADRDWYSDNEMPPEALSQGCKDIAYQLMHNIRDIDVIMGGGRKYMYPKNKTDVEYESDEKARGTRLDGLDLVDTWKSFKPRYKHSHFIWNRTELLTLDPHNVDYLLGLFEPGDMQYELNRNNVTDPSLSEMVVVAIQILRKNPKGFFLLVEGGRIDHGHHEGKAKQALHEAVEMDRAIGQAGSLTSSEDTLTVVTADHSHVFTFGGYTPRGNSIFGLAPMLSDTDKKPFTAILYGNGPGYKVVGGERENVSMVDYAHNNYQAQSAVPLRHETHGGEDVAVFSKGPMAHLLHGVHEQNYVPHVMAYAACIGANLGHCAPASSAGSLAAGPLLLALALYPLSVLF

[14] = molecular target: Intestinal-type alkaline phosphatase (Homo sapiens, UniProt P09923); assay: inhibition of human intestinal alkaline phosphatase – biochemical, dose response (AID 488876); format: functional
Intestinal-type alkaline phosphatase (Homo sapiens, UniProt P09923), sequence (P09923 whole entry): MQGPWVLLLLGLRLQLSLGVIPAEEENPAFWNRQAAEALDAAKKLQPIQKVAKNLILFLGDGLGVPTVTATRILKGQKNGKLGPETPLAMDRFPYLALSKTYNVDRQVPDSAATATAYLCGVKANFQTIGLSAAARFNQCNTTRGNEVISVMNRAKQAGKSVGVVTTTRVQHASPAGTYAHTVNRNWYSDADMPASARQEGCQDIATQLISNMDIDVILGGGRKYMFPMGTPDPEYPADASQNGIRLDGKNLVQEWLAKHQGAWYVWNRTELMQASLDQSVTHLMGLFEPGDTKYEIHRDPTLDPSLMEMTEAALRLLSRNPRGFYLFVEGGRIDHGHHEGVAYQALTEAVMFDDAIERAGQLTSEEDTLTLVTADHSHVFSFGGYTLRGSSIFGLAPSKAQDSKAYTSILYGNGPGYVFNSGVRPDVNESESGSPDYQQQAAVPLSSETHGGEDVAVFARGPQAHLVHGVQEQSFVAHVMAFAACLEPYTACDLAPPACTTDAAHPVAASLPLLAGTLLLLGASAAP

HEK293 [15] = assay: cells; format: functional, cell-based; conditions: Homo sapiens
[16] = molecular target: T4, Nuclear receptor subfamily 0 group B member 1 (Homo sapiens, UniProt P51843); assay: Luminescence-based cell-based high throughput dose response assay for inhibitors of the orphan nuclear receptor subfamily 0, group B, member 1 (DAX1; NR0B1). [Related pubchem assays (depositor defined):AID504766, AID504790]; format: functional
T4 sequence (P51843 whole entry): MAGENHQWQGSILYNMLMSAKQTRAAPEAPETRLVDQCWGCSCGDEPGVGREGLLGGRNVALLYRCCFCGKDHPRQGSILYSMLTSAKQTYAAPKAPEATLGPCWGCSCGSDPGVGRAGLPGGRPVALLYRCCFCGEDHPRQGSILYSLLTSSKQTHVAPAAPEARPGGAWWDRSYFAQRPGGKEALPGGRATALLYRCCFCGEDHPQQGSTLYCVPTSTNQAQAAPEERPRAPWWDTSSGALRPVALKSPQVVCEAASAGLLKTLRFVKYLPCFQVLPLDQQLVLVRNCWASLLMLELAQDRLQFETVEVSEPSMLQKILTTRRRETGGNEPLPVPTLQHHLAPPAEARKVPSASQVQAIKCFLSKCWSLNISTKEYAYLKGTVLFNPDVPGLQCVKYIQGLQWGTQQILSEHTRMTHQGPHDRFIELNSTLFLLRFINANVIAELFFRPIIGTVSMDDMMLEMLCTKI

[17] = molecular target: Glucose-6-phosphate 1-dehydrogenase (Homo sapiens, UniProt P11413); assay: inhibition of Homo sapiens G6PD, dose series – biochemical, fluorescence, selectivity assay for P. falciparum G6PD inhibitor project, dose response (AID 504792); format: functional
Coagulation factor XII = Coagulation factor XII (Homo sapiens, UniProt P00748); format: functional;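 further: activated factor XIIa alpha cleaving a fluorogenic AMC peptide substrate; inhibitor potency from loss of enzyme activity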
[18] = molecular target: Sphingosine 1-phosphate receptor 2 (Homo sapiens, UniProt O95136); assay: Dose Response Cell Based Assay for Agonists of the S1P2 Receptor. [Related pubchem assays: 729, 736, 843 ]; format: functional
Sphingosine 1-phosphate receptor 2, sequence (O95136 whole entry): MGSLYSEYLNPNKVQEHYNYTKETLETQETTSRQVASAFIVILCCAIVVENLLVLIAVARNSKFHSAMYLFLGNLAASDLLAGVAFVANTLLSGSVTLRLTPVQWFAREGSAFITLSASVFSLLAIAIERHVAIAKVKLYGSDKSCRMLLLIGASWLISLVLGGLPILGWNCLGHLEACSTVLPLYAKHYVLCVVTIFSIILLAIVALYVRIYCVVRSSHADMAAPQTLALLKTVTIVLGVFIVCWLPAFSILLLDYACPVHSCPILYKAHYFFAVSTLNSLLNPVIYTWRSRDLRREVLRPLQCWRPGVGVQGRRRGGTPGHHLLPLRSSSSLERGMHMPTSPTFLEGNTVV

CAAX prenyl protease 2 [19] = molecular target: CAAX prenyl protease 2 (Saccharomyces cerevisiae S288c, UniProt Q03530); format: biochemical
CAAX prenyl protease 2 [20] = molecular target: CAAX prenyl protease 2 (Homo sapiens, UniProt Q9Y256); assay: inhibition of Ras-converting CAAX protease Rce1 – biochemical, yeast membranes, quenched-peptide fluorescence, cherry-pick, dose response (AID 588849)
[21] = molecular target: Delta-type opioid receptor (Homo sapiens, UniProt P41143); assay: Counterscreen for agonists of heterodimerization of the mu 1 (OPRM1) and delta 1 (OPRD1) opioid receptors: Luminescence-based cell-based high throughput dose response assay to identify agonists of OPRD1 homodimerization. [Related pubchem assays (depositor defined):AID504326, AID504355, AID504692, AID504904, AID504905]; format: functional
Delta-type opioid receptor, sequence (P41143 whole entry): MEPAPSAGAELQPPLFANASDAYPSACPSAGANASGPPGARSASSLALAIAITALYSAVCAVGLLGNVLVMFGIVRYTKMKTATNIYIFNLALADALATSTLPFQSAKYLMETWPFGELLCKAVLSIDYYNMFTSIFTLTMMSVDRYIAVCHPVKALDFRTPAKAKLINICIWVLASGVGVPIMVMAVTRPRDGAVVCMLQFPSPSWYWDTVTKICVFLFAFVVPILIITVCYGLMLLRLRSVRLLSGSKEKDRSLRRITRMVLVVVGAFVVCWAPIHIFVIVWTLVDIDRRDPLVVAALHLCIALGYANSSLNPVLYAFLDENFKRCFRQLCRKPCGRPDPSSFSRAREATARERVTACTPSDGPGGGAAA

[22] = molecular target: 5-hydroxytryptamine receptor 5A (Homo sapiens, UniProt P47898); assay: Counterscreen for agonists of OPRM1-OPRD1 heterodimerization: luminescence-based cell-based high throughput dose response assay to identify agonists of 5-hydroxytryptamine (serotonin) 5A receptor (HTR5A). [Related pubchem assays (depositor defined):AID504326, AID504355, AID504692, AID504904, AID504905]; format: functional
5-hydroxytryptamine receptor 5A, sequence (P47898 whole entry): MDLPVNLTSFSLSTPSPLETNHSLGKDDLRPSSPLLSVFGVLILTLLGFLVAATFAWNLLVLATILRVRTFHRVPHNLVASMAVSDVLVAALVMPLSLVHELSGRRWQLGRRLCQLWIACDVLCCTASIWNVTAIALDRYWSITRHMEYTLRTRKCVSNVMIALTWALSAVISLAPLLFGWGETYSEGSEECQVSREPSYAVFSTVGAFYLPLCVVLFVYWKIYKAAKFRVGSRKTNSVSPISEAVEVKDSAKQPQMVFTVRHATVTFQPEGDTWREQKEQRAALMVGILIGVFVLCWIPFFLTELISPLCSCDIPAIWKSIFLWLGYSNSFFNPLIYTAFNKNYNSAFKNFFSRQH

Mu-type opioid receptor = Mu-type opioid receptor (Homo sapiens, UniProt P35372); assay: Counterscreen for agonists of heterodimerization of the mu 1 (OPRM1) and delta 1 (OPRD1) opioid receptors: Luminescence-based cell-based high throughput dose response assay to identify agonists of OPRM1 homodimerization.; format: functional;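 further: U2OS cells expressing OPRM1 and beta-arrestin as split beta-galactosidase partners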
Mu-type opioid receptor, sequence (P35372 whole entry): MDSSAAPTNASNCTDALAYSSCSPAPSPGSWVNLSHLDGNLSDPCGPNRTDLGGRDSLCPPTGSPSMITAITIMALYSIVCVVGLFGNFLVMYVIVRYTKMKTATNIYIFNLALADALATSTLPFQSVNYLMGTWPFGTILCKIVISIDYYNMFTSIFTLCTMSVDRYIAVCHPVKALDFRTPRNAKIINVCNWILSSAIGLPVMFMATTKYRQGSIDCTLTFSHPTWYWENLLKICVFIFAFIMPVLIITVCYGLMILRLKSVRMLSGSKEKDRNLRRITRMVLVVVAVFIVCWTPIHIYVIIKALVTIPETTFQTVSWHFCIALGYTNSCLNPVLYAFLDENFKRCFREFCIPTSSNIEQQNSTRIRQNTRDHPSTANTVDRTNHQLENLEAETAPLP

[23] = molecular target: G-protein coupled receptor 55 (Homo sapiens, UniProt Q9Y2T6); assay: inhibition of LPI-stimulated GPR55 beta-arrestin translocation – imaging, U2OS, beta-arrestin-GFP, LPI agonist, primary screen (AID 2013); format: functional;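 further: antagonist potency measured as reduced agonist-driven arrestin aggregation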
G-protein coupled receptor 55, sequence (Q9Y2T6 whole entry): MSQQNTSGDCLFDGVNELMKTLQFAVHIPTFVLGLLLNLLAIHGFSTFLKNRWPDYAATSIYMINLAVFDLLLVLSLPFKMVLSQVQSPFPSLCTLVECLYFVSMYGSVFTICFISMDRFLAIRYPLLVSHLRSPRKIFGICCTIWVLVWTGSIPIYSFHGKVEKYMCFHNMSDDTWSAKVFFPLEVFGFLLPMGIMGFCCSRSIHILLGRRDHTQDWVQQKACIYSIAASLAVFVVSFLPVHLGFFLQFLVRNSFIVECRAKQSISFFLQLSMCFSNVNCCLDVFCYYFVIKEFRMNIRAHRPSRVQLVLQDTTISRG

Vero = assay: cells; format: functional; conditions: Chlorocebus sabaeus
Genome polyprotein = Genome polyprotein (dengue virus type 2, UniProt P29990); assay: flavivirus cap methylation enzyme inhibition – biochemical, confirmation dose response, primary screen (AID 588689); format: functional

Cytochrome P450 2C19, sequence (P33261 whole entry): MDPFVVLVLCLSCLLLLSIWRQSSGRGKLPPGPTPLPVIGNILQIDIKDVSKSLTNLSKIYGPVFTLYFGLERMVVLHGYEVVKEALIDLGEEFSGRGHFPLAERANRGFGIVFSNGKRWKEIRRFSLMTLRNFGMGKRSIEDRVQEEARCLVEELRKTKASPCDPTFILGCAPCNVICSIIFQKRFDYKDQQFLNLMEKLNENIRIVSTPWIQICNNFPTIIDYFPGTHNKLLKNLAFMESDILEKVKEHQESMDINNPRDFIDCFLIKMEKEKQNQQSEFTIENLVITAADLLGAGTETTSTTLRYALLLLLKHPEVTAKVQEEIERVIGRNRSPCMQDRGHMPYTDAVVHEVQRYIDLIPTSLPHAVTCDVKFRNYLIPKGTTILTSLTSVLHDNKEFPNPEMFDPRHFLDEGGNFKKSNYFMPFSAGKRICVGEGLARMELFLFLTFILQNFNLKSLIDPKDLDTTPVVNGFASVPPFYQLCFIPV

Structure (SMILES): Cc1ccc(C(=O)C2CCNCC2)cc1.Cl
- AC50 (Cytochrome P450 2C19): inconclusive
- AC50 (Cytochrome P450 3A4 [1]): inconclusive

Structure (SMILES): CCn1nnc(NC(=O)c2cc3ccccc3o2)n1
- AC50 [2]: 48.3 µM (active)

Structure (SMILES): CC(C)(C)OC(=O)CC(S(=O)(=O)c1ccccc1)S(=O)(=O)c1ccccc1
- EC50 (HEK293 [3]): > 59.6 µM (inactive)
- EC50 (HEK293 [4]): > 59.6 µM (inactive)

Structure (SMILES): COc1c(N2CCN(C(S)=Nc3ccccc3F)C(C)C2)c(F)cc2c(=O)c(C(=O)O)cn(C3CC3)c12 (configuration not stated)
- EC50 [5]: 2.24 µM (active)
- AC50 (Escherichia coli [6]): 0.518 µM (active)
- EC50 (Streptococcus): 3.27 µM (active)

Structure (SMILES): Fc1cccc(NC(S)=NCCCN2CCOCC2)c1
- AC50 (Cytochrome P450 2C19; read-out: AC50): 17.8 µM (inconclusive)
- AC50 (Cytochrome P450 3A4 [7]): 17.8 µM (inconclusive)
- AC50 (Escherichia coli [8]): 17.3 µM (active)

Structure (SMILES): CC(=O)Nc1nc2ccc(Br)cc2s1
- IC50 (Protein skinhead-1): > 100 µM (inactive)
- AC50 [9]: 3.33 µM (active)

Structure (SMILES): O=C1CCCc2nc3c(cc21)C(O)Oc1c-3ccc2ccccc12 (configuration not stated)
- EC50 (H4): > 120 µM (not active)
- AC50 (HeLa): 51 µM (active)

Structure (SMILES): Cc1cccc(N(CC(=O)NC2CCCC2)C(=O)CCCC(=O)Nc2ccccn2)c1
- AC50 (Escherichia coli [6]): 25 µM (active)

Structure (SMILES): CCCn1ncc(CN2CCC(C(=O)Nc3cccc(-c4cccc(F)c4)c3)CC2)c1C
- IC50 [10]: 0.902 µM (active)
- EC50 [11]: 3.89 µM (active)
- EC50 [12]: 2.33 µM (active)
- IC50 [13]: 11.8 µM (active)
- IC50 [14]: > 100 µM (inactive)

Structure (SMILES): CCn1c(C)cc(C(=O)COC(=O)c2cccnc2SC)c1C
- IC50 (HEK293 [15]): > 67.5 µM (inactive)
- IC50 [16]: > 67.5 µM (inactive)

Structure (SMILES): COc1cc(C(=O)O/N=C2/C=C(C)C(=O)C=C2C)cc(OC)c1OC
- IC50 [17]: > 80 µM (inactive)
- IC50 (Coagulation factor XII): 4.75 µM (active)

Structure (SMILES): O=C(O)c1cc(O)c2c(c1)[C@@H]([C@H]1c3cc(C(=O)O)cc(O)c3C(=O)c3c(O[C@@H]4O[C@H](CO)[C@@H](O)[C@H](O)[C@H]4O)cccc31)c1cccc(O[C@@H]3O[C@H](CO)[C@@H](O)[C@H](O)[C@H]3O)c1C2=O [SENNOSIDE B]
- AC50 [2]: 3.69 µM (active)

Structure (SMILES): O=c1c(-c2nc3ccccc3s2)cccn1Cc1ccccc1
- EC50 [18]: 7.37 µM (active)
- AC50 (HeLa): 56.9 µM (active)

Structure (SMILES): COc1ccc2cc(C(=O)C3CCCN(C(=O)c4cc(=O)n(C)c(=O)n4C)C3)ccc2c1 (configuration not stated)
- AC50 (CAAX prenyl protease 2 [19]): 10.4 µM (active)
- AC50 (CAAX prenyl protease 2 [20]): 14.2 µM (active)

Structure (SMILES): C[N+](C)(C)C(Cc1ccccc1)C(=O)[O-] (configuration not stated)
- IC50 [10]: 4.35 µM (active)
- IC50 [13]: 60.4 µM (active)
- IC50 [14]: > 100 µM (inactive)

Structure (SMILES): CCC(=O)OC(Cc1ccccc1)(c1ccccc1)[C@H](C)CN(C)C (some centres not stated)
- EC50 [21]: 86.4 µM (inactive)
- EC50 [22]: > 92.5 µM (inactive)
- EC50 (Mu-type opioid receptor): > 92.5 µM (inactive)

Structure (SMILES): Cc1ccccc1C(=O)N1CCN(c2ccc([N+](=O)[O-])c(N3CCOCC3)c2)CC1
- AC50 (Cytochrome P450 3A4 [1]): inconclusive

Structure (SMILES): COc1cc(SC)ccc1C(=O)Nc1ccc2c(c1)OCO2
- IC50 (HEK293 [15]): > 67.6 µM (inactive)
- IC50 [16]: > 67.6 µM (inactive)

Structure (SMILES): Cc1cc(/C=C2\SC(Nc3ccccc3)=NC2=O)c(C)n1-c1ccc(S(N)(=O)=O)cc1
- EC50 [21]: 3.03 µM (active)
- IC50 [23]: 1.66 µM (active)
- EC50 [22]: > 92.5 µM (inactive)
- EC50 (Mu-type opioid receptor): > 92.5 µM (inactive)
- CC50 (Vero): 7.44 µM (active)

Structure (SMILES): NS(=O)(=O)c1ccc(N=Nc2c(O)c(C(=O)O)cc3ccccc23)cc1
- IC50 (Genome polyprotein): > 100 µM (active)
- AC50 [9]: 3.59 µM (active)

Structure (SMILES): CCOC(=O)[C@H]1[C@H]2COc3ccc(OC)cc3[C@H]2N2C(=O)CN(Cc3ccccc3)C(=O)[C@@]12C
- AC50 (Escherichia coli [8]): 54.9 µM (active)
